This assay has as its target T1, human-KAT6A (MYST domain 507-778 aa) (Homo sapiens, UniProt Q92794).
T1 construct: human-KAT6A (MYST domain 507-778 aa)
The assay is described as follows: KAT6A biochemical assay (TR-FRET). The settings on record: for inhibition at 1 µM: compound at 1 μM, percent inhibition of internal assay controls; for IC50: dose-response, sigmoidal curve fit, groups A, B, C; for inhibition at 10 µM: compound at 10 μM (stated in the cell), read-out: Percent Inhibition (at 10 μM). The source says: A TR-FRET based method was used for assaying compounds of the invention for KAT6A enzyme inhibitory activity. TR-FRET is homogeneous proximity assay where Europium-labelled anti-acetyl lysine antibody binds to the acetylated substrate labelled with biotin which in turn binds to streptavidin labelled APC fluorescence acceptor. Europium can transfer energy to APC in the complex and the interaction of two dye-labelled binding partners is detected by the energy transfer between a donor and an acceptor dye, and the subsequent light emission by the acceptor dye. KAT6A transfer an acetyl group from acetyl CoA to lysine amino acids of histones/target proteins. Typically, 5 μL of human-KAT6A (MYST domain 507-778 aa) in assay buffer (100 mM Tris HCl (pH 7.8), 15 mM NaCl, 1 mM EDTA, 0.01% Tween-20, 0.02% BSA, 1 mM DTT) is added to a 384-well plate containing 5 μL of selected test compound in final 1% DMSO, serially diluted in 1:3 in an 8-10-point titration. The selected compound of the present invention and enzyme are incubated for 30 min at room temperature. Next, 5 μL of substrate mix containing histone H4 peptide and acetyl-CoA in assay buffer is added to the plate. The final concentrations of H4 peptide and acetyl-CoA are 200 nM and 600 nM respectively. Following 30 min reaction at room temperature, 5 μL of detection mix containing Europium labelled anti-acetyl antibody and streptavidin-APC is added to the reaction wells. Plate is further incubated for 45 min at room temperature and is read in TR-FRET mode (Ex: 340 nm; Em: 615 nm and 665 nm) on a plate reader.
Selected compounds of the present invention were screened in the above-mentioned assay procedure and IC50 values were determined by fitting the dose-response data to sigmoidal curve fitting equation using Graph pad prism software V8. […]

T1 sequence (Q92794 507-778): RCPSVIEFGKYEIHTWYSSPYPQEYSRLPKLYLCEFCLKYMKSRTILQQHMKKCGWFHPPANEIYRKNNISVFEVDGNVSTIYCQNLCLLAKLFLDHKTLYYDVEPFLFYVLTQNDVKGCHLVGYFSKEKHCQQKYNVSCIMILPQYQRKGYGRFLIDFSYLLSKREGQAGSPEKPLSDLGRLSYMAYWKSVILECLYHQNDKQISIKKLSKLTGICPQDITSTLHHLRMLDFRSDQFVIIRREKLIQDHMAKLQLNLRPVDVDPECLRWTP

The inhibition is the percentage by which the read-out fell short of the control. Compound `COc1cccc(OC)c1S(=O)(=O)Nc1noc2nc(N3CCOCC3)cc(OC)c12` [Compound 14, 2,6-dimethoxy-N-(4-methoxy-6-morpholinoisoxazolo[5,4-b]pyridin-3-yl)benzenesulfonamide] returned an inhibition at 1 µM of 49%. Usually IC50 stands for the concentration at which inhibition is half-maximal. Low readings indicate inhibition by little substance, high ones a need for much substance. With `COc1ccccc1-c1cc(OC)c2c(NS(=O)(=O)c3c(OC)cccc3OC)noc2n1` [Compound 10, 2,6-dimethoxy-N-(4-methoxy-6-(2-methoxyphenyl)isoxazolo[5,4-b]pyridin-3-yl)benzenesulfonamide], at 1 µM the inhibition was 100% and the half-maximal inhibitory concentration (IC50) is below 100 nM. `COc1ccc(CN(C)c2cc(OC)c3c(NS(=O)(=O)c4c(OC)cccc4OC)noc3n2)cc1` [Compound 29, 2,6-dimethoxy-N-(4-methoxy-6-((4-methoxybenzyl)(methyl)amino)isoxazolo[5,4-b]pyridin-3-yl)benzenesulfonamide] returned an inhibition at 1 µM of 38%.

For `COc1cc(-c2ccccc2)nc2onc(NS(=O)(=O)c3ccccc3OC(F)(F)F)c12` [Compound 7, N-(4-methoxy-6-phenylisoxazolo[5,4-b]pyridin-3-yl)-2-(trifluoromethoxy)benzenesulfonamide], the inhibition at 1 µM came out at 25%. Take `COc1cccc(OC)c1S(=O)(=O)Nc1noc2nc(N3CCCC3)cc(OC)c12` [Compound 13, 2,6-dimethoxy-N-(4-methoxy-6-(pyrrolidin-1-yl)isoxazolo[5,4-b]pyridin-3-yl)benzenesulfonamide]: at 1 µM the inhibition was 97% and the IC50 was 110 to 200 nM. With `COc1cc(C(C)(C)C)ccc1S(=O)(=O)Nc1noc2nc(-c3ccccc3)cc(OC)c12` [Compound 34, 4-(tert-butyl)-2-methoxy-N-(4-methoxy-6-phenylisoxazolo[5,4-b]pyridin-3-yl)benzenesulfonamide], the inhibition at 10 µM was 100% and the IC50 is above 200 nM.

With `COc1cccc(OC)c1S(=O)(=O)Nc1noc2nc(N3CCC(F)(F)C3)cc(OC)c12` [Compound 18, N-(6-(3,3-difluoropyrrolidin-1-yl)-4-methoxyisoxazolo[5,4-b]pyridin-3-yl)-2,6-dimethoxybenzenesulfonamide], the inhibition at 1 µM stood at 100% and the concentration for half-maximal inhibition (IC50) was below 100 nM. As to `CNc1cc(OC)c2c(NS(=O)(=O)c3c(OC)cccc3OC)noc2n1` [Compound 37, 2,6-dimethoxy-N-(4-methoxy-6-(methylamino)isoxazolo[5,4-b]pyridin-3-yl)benzenesulfonamide], the inhibition at 1 µM is 34%. For `COc1ccccc1S(=O)(=O)Nc1noc2nc(-c3ccccc3)cc(OC)c12` [Compound 8, 2-methoxy-N-(4-methoxy-6-phenylisoxazolo[5,4-b]pyridin-3-yl)benzenesulfonamide], at 1 µM the inhibition was 82% and the IC50 was 110 to 200 nM. On to `COc1cccc(OC)c1S(=O)(=O)Nc1noc2nc(Cn3cccn3)cc(OC)c12` [Compound 35, N-(6-((1H-pyrazol-1-yl)methyl)-4-methoxyisoxazolo[5,4-b]pyridin-3-yl)-2,6-dimethoxybenzenesulfonamide], for which the IC50 is above 200 nM.

Consider `COc1cccc(OC)c1S(=O)(=O)Nc1noc2cnccc12` [Compound 21, N-(isoxazolo[5,4-c]pyridin-3-yl)-2,6-dimethoxybenzenesulfonamide], for which testing at 1 µM gave an inhibition of 11%. Compound `COc1cccc(OC)c1S(=O)(=O)Nc1noc2ncncc12` [Compound 20, N-(isoxazolo[5,4-d]pyrimidin-3-yl)-2,6-dimethoxybenzenesulfonamide] came in with an inhibition at 1 µM of 14%. The compound `COc1cccc(OC)c1S(=O)(=O)Nc1noc2nc(-c3ccccc3)cc(OC)c12` [Compound 1, 2,6-dimethoxy-N-(4-methoxy-6-phenylisoxazolo[5,4-b]pyridin-3-yl)benzenesulfonamide] registered an inhibition at 1 µM of 100% and an IC50 below 100 nM. In the case of `CCNc1cc(OC)c2c(NS(=O)(=O)c3c(OC)cccc3OC)noc2n1` [Compound 38, N-(6-(ethylamino)-4-methoxyisoxazolo[5,4-b]pyridin-3-yl)-2,6-dimethoxybenzenesulfonamide], the inhibition at 1 µM stood at 95%.

Take `COc1cccc(OC)c1S(=O)(=O)Nc1noc2cc(-c3ccccc3)ncc12` [Compound 11, 2,6-dimethoxy-N-(6-phenylisoxazolo[4,5-c]pyridin-3-yl)benzenesulfonamide]: 1 µM produced 12% inhibition. Regarding `COc1cccc(OC)c1S(=O)(=O)Nc1noc2cc(-c3ccccc3)cnc12` [Compound 6, 2,6-dimethoxy-N-(6-phenylisoxazolo[4,5-b]pyridin-3-yl)benzenesulfonamide], the inhibition at 10 µM worked out at 58%. Turning to `COc1cccc(OC)c1S(=O)(=O)Nc1noc2nc(N3CC(F)(F)C3)cc(OC)c12` [Compound 28, N-(6-(3,3-difluoroazetidin-1-yl)-4-methoxyisoxazolo[5,4-b]pyridin-3-yl)-2,6-dimethoxybenzenesulfonamide], the inhibition at 1 µM came out at 80% and the IC50 was above 200 nM. The compound `COc1cccc(OC)c1S(=O)(=O)Nc1noc2nc(-c3ccsc3)cc(OC)c12` [Compound 31, 2,6-dimethoxy-N-(4-methoxy-6-(thiophen-3-yl)isoxazolo[5,4-b]pyridin-3-yl)benzenesulfonamide] had an IC50 below 100 nM. `COc1cccc(OC)c1S(=O)(=O)Nc1noc2ncccc12` [Compound 24, N-(isoxazolo[5,4-b]pyridin-3-yl)-2,6-dimethoxybenzenesulfonamide]: at 1 µM the inhibition was 13%. `COc1cccc(OC)c1S(=O)(=O)Nc1noc2nc(N(C)C3CCCCC3)cc(OC)c12` [Compound 27, N-(6-(cyclohexyl(methyl)amino)-4-methoxyisoxazolo[5,4-b]pyridin-3-yl)-2,6-dimethoxybenzenesulfonamide] came in with an inhibition at 1 µM of 17%. Turning to `COc1cccc(OC)c1S(=O)(=O)Nc1noc2nc(N3CCCCC3)cc(OC)c12` [Compound 12, 2,6-dimethoxy-N-(4-methoxy-6-(piperidin-1-yl)isoxazolo[5,4-b]pyridin-3-yl)benzenesulfonamide], testing at 1 µM gave an inhibition of 54%. Compound `COc1cccc(OC)c1S(=O)(=O)Nc1noc2nccnc12` [Compound 22, N-(isoxazolo[4,5-b]pyrazin-3-yl)-2,6-dimethoxybenzenesulfonamide] yielded an inhibition at 1 µM of 12%.

In turn, `COc1cccc(OC)c1S(=O)(=O)Nc1noc2nc(-c3ccccc3)nc(OC)c12` [Compound 2, 2,6-dimethoxy-N-(4-methoxy-6-phenylisoxazolo[5,4-d]pyrimidin-3-yl)benzenesulfonamide] yielded an inhibition at 1 µM of 100% and an IC50 below 100 nM. Turning to `CCOc1ccccc1S(=O)(=O)Nc1noc2nc(-c3ccccc3)cc(OC)c12` [Compound 9, 2-ethoxy-N-(4-methoxy-6-phenylisoxazolo[5,4-b]pyridin-3-yl)benzenesulfonamide], testing at 1 µM gave an inhibition of 62% and the IC50 is above 200 nM. On to `COc1cc(-c2ccccc2)nc2onc(NS(=O)(=O)c3ccccc3-c3ccccc3)c12` [Compound 5, N-(4-methoxy-6-phenylisoxazolo[5,4-b]pyridin-3-yl)-[1,1′-biphenyl]-2-sulfonamide], for which 1 µM produced 52% inhibition and the IC50 was below 100 nM. As to `COc1cc(-c2ccccc2)nc2onc(NS(=O)(=O)c3ccccc3F)c12` [Compound 26, 2-fluoro-N-(4-methoxy-6-phenylisoxazolo[5,4-b]pyridin-3-yl)benzenesulfonamide], testing at 1 µM gave an inhibition of 23%. In turn, `COc1cccc(OC)c1S(=O)(=O)Nc1noc2nc(N3CC(OC)C3)cc(OC)c12` [Compound 17, 2,6-dimethoxy-N-(4-methoxy-6-(3-methoxyazetidin-1-yl)isoxazolo[5,4-b]pyridin-3-yl)benzenesulfonamide] showed an inhibition at 1 µM of 100% and an IC50 of 110 to 200 nM. `COc1cccc(OC)c1S(=O)(=O)N(C)c1noc2nc(-c3ccccc3)cc(OC)c12` [Compound 36, 2,6-dimethoxy-N-(4-methoxy-6-phenylisoxazolo[5,4-b]pyridin-3-yl)-N-methylbenzenesulfonamide]: 1 µM produced 0% inhibition. Turning to `COc1cccc(OC)c1S(=O)(=O)Nc1noc2nc(N3CCC(OC)C3)cc(OC)c12` (stereo not shown) [Compound 19, 2,6-dimethoxy-N-(4-methoxy-6-(3-methoxypyrrolidin-1-yl)isoxazolo[5,4-b]pyridin-3-yl)benzenesulfonamide], the inhibition at 1 µM is 92% and the IC50 was 110 to 200 nM. Turning to `COc1cccc(OC)c1S(=O)(=O)Nc1noc2nc(N3CCC3)cc(OC)c12` [Compound 16, N-(6-(azetidin-1-yl)-4-methoxyisoxazolo[5,4-b]pyridin-3-yl)-2,6-dimethoxybenzenesulfonamide], the inhibition at 1 µM worked out at 100% and the IC50 lay in the range of 110 to 200 nM.

The values above are taken from patent US20240254139A1, “FUSED ISOXAZOLYL COMPOUNDS AS KAT6A INHIBITORS” (Aurigene Oncology Limited, priority 2021, published 2024).
